Counter-ions that a name gives are not always drawn. Like-named read-outs stand apart in the source and are kept apart here.
Assays:
[1] = tested on: hMDMs differentiated into M1 by IFNγ plus TNFα; assay: Reprogramming screen and dosage response on M1-like differentiated macrophages; format: cell-based, human; settings: Homo sapiens, Macrophage, 24 h; M2-activating compounds on M1-like macrophages (IFNγ plus TNFα); EC = concentration reaching Z-score cutoff
Description: Data were summarized from 3 independent experiments.
(§1) Human macrophages were seeded into optical 384-well plates. Sixteen hours later, medium in M1 plates were replaced by M1 differentiating medium (complete RPMI with 50 ng/mL IFNγ and 50 ng/mL TNFα) and medium in M2 plates by M2 differentiating medium (complete RPMI with 5 ng/mL IL-4 and 5 ng/mL IL-13). After 24 hrs cell differentiation, M1 plates (M1 macrophages) and M2 plates (M2 macrophages) were treated with M2-activating compounds and M1-activating compounds respectively for 24 hrs. Two independent experiments were performed with or without replacing differentiating medium right before treatment. Cell imaging and analysis were performed as indicated above.
To investigate whether the identified compounds could reprogram or reactivate macrophages after M1- or M2-like differentiation, we rescreened the hits on M1- or M2-activated macrophages. hMDMs were activated into M2-like macrophages by IL-4 plus IL-13 or M1-like macrophages by IFNγ plus TNFα. […] 24 hours later, cell images were taken and cell shapes were quantified.
(§2) We also rescreened the hits on differentiated macrophages in the presence of differentiating cytokines: either IL-4 plus IL-13 or IFNγ plus TNFα.

[2] = tested on: M1-like and M2-like differentiated hMDMs; assay: RNA-seq of differentiated macrophages reprogrammed by compounds; format: cell-based, human; settings: compound at EC, 24 hours
Description: FIGS. 4A-4F show reprogramming of differentiated macrophages by selected compounds. […] Controls include two differentiated M1 and M2 macrophages, M2 macrophages treated with IFNγ and M1 macrophages treated with IL-4. Gene expression in each sample was measured by RNA-seq separately. […] FIG. 4D show network of GO enriched terms using BiNGO on top 10% central hubs genes (n=1255) of macrophage activation network. Node color and size represent the FDR values of enriched GO terms. […] Shared (FIG. 4E) and unique pathways (FIG. 4F) are shown. Compound targets and FDA-approval information are indicated. […]
Differentially expressed genes were annotated using online functional enrichment analysis tool DAVID (http://david.ncifcrf.gov/). […] To quantify the levels of RNA transcripts, total RNA was extracted from various cells and reverse transcribed by TaqMan® Reverse Transcription Reagents Kit (ABI Catalog No. N8080234), followed by amplification with Sybr Green Master Mix (Roche Catalog No. 04707516001) with specific primers (Table 4) and detected by Roche LightCycler 480. […]
To determine the central hubs of all stimulation conditions by compounds (refer to FIG. 4) reflecting the core macrophage activation network, transcriptional interactions between genes were first determined by ARACNe based on the perturbed transcriptional profiles of 34 compounds as well as IFNγ and IL4 controls. […]

M0 macrophages (hMDMs) = assay: Dosage response of cell shape change on M0 macrophages; format: cell-based, human
[3] = tested on: hMDMs differentiated into M2 by IL-4 plus IL-13; settings: differentiated macrophages;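 note: human monocyte-derived macrophages held 24 h in 5 ng/mL IL-4 plus IL-13 before 24 h compound exposure, with cell shape measured from images in 384-well plates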
Description: (§3) Shown are comparison of Z-scores between 5 μM or 10 μM of compounds. […] Shown are comparison of Z-scores between 5 μM or 10 μM of compounds. […] EC and fitness of 21 M1-polarizing (triangle) and 19 M2-polarizing compounds (circle) were calculated by the Michaelis-Menten equation and plotted. Data were summarized from 3 independent experiments.
as §1
(§4) To investigate whether the identified compounds could reprogram or reactivate macrophages after M1- or M2-like differentiation, we rescreened the hits on M1- or M2-activated macrophages. hMDMs were activated into M2-like macrophages by IL-4 plus IL-13 or M1-like macrophages by IFNγ plus TNFα. After removing the differentiating cytokines, M2-like macrophages were treated with each of the 166 M1-activating compounds and M1-like macrophages were treated with each of the 180 M2-activating compounds at a final concentration of either 5 μM and 10 μM. 24 hours later, cell images were taken and cell shapes were quantified. […] Dosage responses were carried out with 40 commercial available compounds (21 M1-activating and 19 M2-activating) on polarized macrophages.
as §2

[4] = tested on: hMDMs differentiated into M2 by IL-4 plus IL-13; assay: Reprogramming screen and dosage response on M2-like differentiated macrophages;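 note: human monocyte-derived macrophages held 24 h in 5 ng/mL IL-4 plus IL-13 before 24 h compound exposure, with cell shape measured from images in 384-well plates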
Description: as §3, §1, §4, §2

[5] = tested on: bone marrow derived macrophages (BMDMs); assay: Seahorse ECAR (glycolysis) in BMDMs; format: cell-based, mouse; settings: macrophages, NOX inhibition
Description: FIGS. 21A-21I show DPI stimulates glycolysis through GPR3 and β-arrestin2. FIGS. 21A-21B show DPI-stimulated glycolysis is independent of the NOX activity. […] The mean fluorescence intensity (MFI) of 2-NBDG in cells was measured by flow cytometry and normalized to DMSO controls of wildtype BMDMs. Data are presented as the mean±sd (n=3). […] ImKCs were transfected with siRNA specific for Gpr3 or a scramble siRNA as control. […] Data are presented as the mean±sd (n=4). […] Data are presented as the mean±sd (n=12). […] Abbr2^−/− ImKC were constructed by CRISPR-Cas9-mediated gene editing. […] Data are presented as the mean±sd (n=4). […]
Specific parameters for glycolytic capacity and glycolytic reserve were calculated and summarized based on two independent experiments. […]
FIGS. 29A-29B show comparison of DPI's effect on glycolysis in wild-type and Pkm^−/− BMDMs. […] ImKCs were treated with DMSO or DPI alone (500 nM) or DPI plus ERK1/2 inhibitor (SCH772984, […]) for 6 hrs and the enzymatic activities of PKM2 (c) and GAPDH (d) were measured by colorimetric assay kits (Biovision). […]
OCR and ECAR were measured in isolated tissues or cultured ImKCs using the Seahorse XFe Extracellular Flux Analyzer (Agilent). […] Glucose levels were determined using a glucose (GO) assay kit (Sigma). […] Lactate levels were determined using a lactate assay kit (Eton Bioscience). […]

PKM2 = assay: PKM enzymatic activity (colorimetric kit) in treated ImKCs; format: cell-based, mouse; settings: ERK1/2 phosphorylation inhibited
Description: Data are presented as the mean±sd (n=4). […] Data are presented as the mean±sd (n=6).
FIGS. 29A-29B show comparison of DPI's effect on glycolysis in wild-type and Pkm^−/− BMDMs. […] FIGS. 29C-29D show activation of PKM2 and GAPDH enzymatic activity by DPI is inhibited by ERK1/2 inhibitor. ImKCs were treated with DMSO or DPI alone (500 nM) or DPI plus ERK1/2 inhibitor (SCH772984, […]) for 6 hrs and the enzymatic activities of PKM2 (c) and GAPDH (d) were measured by colorimetric assay kits (Biovision). Data are presented as the mean±sd (n=6).
The enzymatic activities of PKM and GAPDH were measured using the pyruvate kinase activity assay kit (Biovision, #K709) and GAPDH activity assay kit (Biovision, #K680) according to the manufacturer's protocols, respectively.

C(=N\NC1=NCCN1)/c1c2ccccc2c(/C=N/NC2=NCCN2)c2ccccc12 [Bisantrene dihydrochloride]
EC (M2 Z-score cutoff) [1]: 1.98 µM | unique pathway perturbed [2]: perturbed the pathway of DNA topological change

CCCCCCCCc1ccc(CCC(N)(CO)CO)cc1 [FTY720]
Max absolute Z-value (M0 macrophages (hMDMs)): −11.58 | Category (M0 macrophages (hMDMs); M0 macrophages): M1 (−4 for M1-activated macrophages) | Category [3]: M1 (−4 for M1-activated macrophages) | EC (M1 Z-score cutoff) ([4]; Homo sapiens, Macrophage, 24 h, read-out: EC): 0.131 µM

Nc1ccccc1NC(=O)c1ccc(CNC(=O)OCc2cccnc2)cc1 [MS275]
Category (M0 macrophages (hMDMs); M0 macrophages): M1 (−4 for M1-activated macrophages) | EC (M0 macrophages (hMDMs); M0 macrophages, EC = concentration inducing cell morphology changes to reach the M1 or M2 Z-score cutoff, Michaelis-Menten fit, 3 independent experiments, unit of the source corrected): 1.05 µM | Max absolute Z-value (M0 macrophages (hMDMs); M0 macrophages, Max Z-score from Michaelis-Menten equation, negative = round, positive = elongated): −7.993 | unique pathway perturbed [2]: perturbed the pathway of chromatin assembly | EC ([4]; M1-activating compounds on M2-like macrophages (IL-4 plus IL-13), EC = concentration reaching Z-score cutoff): 0.811 µM | Category ([4]; differentiated macrophages): M1 (−4 for M1-activated macrophages)

COc1cc(C(C)=O)ccc1O [apocynin]
basal level of glycolytic activity [5]: significantly reduced | DPI's effect on PKM2 enzymatic activity (PKM2): abolished

Source: patent publication US20250262167A1, “COMPOUNDS, TARGETS AND PATHWAYS FOR MACROPHAGE MODULATION” (Massachusetts Institute of Technology, priority 2020, published 2025)
